Source: patent US20230093099A1, “COMPOUNDS AND METHODS OF TREATING CANCERS” (CULLGEN (SHANGHAI), INC., priority 2019, published 2023)

test system: RS4;11 cells; test: Cell viability assay (CellTiter-Glo) in RS4;11 cells; format: cell-based; settings: Homo sapiens, 72 h; RS4;11 cells; cell viability, 3 days, CellTiter-Glo; read-out: IC50
Protocol: Specific exemplary heterobifunctional compounds were first characterized using cell viability assays. RS4;11 ALL cells were treated with bifunctional degraders for three days. The IC50 values ranged from 2 nM to over 10 uM.
MV4;11, RS4;11, Kasumi-1, HEL and other cells were treated with NVP-BSK805, TG101209 or selected degraders for 3 days at indicated concentrations following a 3-fold serial dilution.
HEL, RS4;11, MV4;11, Kasumi-1 and other cells were cultured at 37° C. with 5% CO2 in RPMI 1640 or DMEM Medium supplemented with 10% fetal bovine serum. Cells were authenticated using the short tandem repeat (STR) assays. Mycoplasma test results were negative.
Cells were seeded at a density of 5000 cells per well in 96-well assay plates and treated with test compounds following a 8-point or 12-point 3-fold serial dilution. Three days later, cell viability was determined using the CellTiter-Glo assay kit according to the manufacturer's instructions. The dose-response curves were determined and IC50 values were calculated using the GraphPad Prism software following a nonlinear regression (least squares fit) method.

First: Cc1cnc(Nc2ccc(N3CCN(C(=O)CCCNc4cccc5c4C(=O)N(C4CCC(=O)NC4=O)C5=O)CC3)cc2)nc1Nc1cccc(S(=O)(=O)NC(C)(C)C)c1 (centres unmarked) [JA-008, N-(tert-Butyl)-3-((2-((4-(4-(4-((2-(2,6-dioxopiperidin-3-yl)-1,3-dioxoisoindolin-4-yl)amino)butanoyl)piperazin-1-yl)phenyl)amino)-5-methylpyrimidin-4-yl)amino)benzenesulfonamide]
Second: Cc1cnc(Nc2ccc(N3CCN(CC(=O)NCCCCCCCCNc4ccc5c(c4)C(=O)N(C4CCC(=O)NC4=O)C5=O)CC3)cc2)nc1Nc1cccc(S(=O)(=O)NC(C)(C)C)c1 (centres unmarked) [JA-247, 2-(4-(4-((4-((3-(N-(tert-butyl)sulfamoyl)phenyl)amino)-5-methylpyrimidin-2-yl)amino)phenyl)piperazin-1-yl)-N-(8-((2-(2,6-dioxopiperidin-3-yl)-1,3-dioxoisoindolin-5-yl)amino)octyl)acetamide]
The IC50 of the first is 3-fold higher: 1460 nM for the first, 484 nM for the second.

Going from `CS(=O)(=O)c1ccc(-c2cccc3nc(Nc4ccc(N5CCN(C(=O)CCNc6cccc7c6C(=O)N(C6CCC(=O)NC6=O)C7=O)CC5)cc4)nn23)cc1` (centres unmarked) [JA-012, 2-(2,6-Dioxo-piperidin-3-yl)-4-[3-(4-{4-[5-(4-methanesulfonyl-phenyl)-[1,2,4]triazolo[1,5-a]pyridin-2-ylamino]-phenyl}-piperazin-1-yl)-3-oxo-propylamino]-isoindole-1,3-dione] to `CS(=O)(=O)c1ccc(-c2cccc3nc(Nc4ccc(N5CCN(CC(=O)NCCNc6cccc7c6C(=O)N(C6CCC(=O)NC6=O)C7=O)CC5)cc4)nn23)cc1` (centres unmarked) [JA-117, N-(2-((2-(2,6-Dioxopiperidin-3-yl)-1,3-dioxoisoindolin-4-yl)amino)ethyl)-2-(4-(4-((5-(4-(methylsulfonyl)phenyl)-[1,2,4]triazolo[1,5-a]pyridin-2-yl)amino)phenyl)piperazin-1-yl)acetamide], the IC50 falls from 4700 nM to 1440 nM (3.3-fold). The second is the more potent here.

`O=C1CCC(N2C(=O)c3ccc(OCCCCCCN4CCC(n5cc(-c6cnc7cccc(-c8cc(F)c(CN9CCOCC9)c(F)c8)c7n6)cn5)CC4)cc3C2=O)C(=O)N1` (centres unmarked) [JA-267, 5-((6-(4-(4-(8-(3,5-Difluoro-4-(morpholinomethyl)phenyl)quinoxalin-2-yl)-1H-pyrazol-1-yl)piperidin-1-yl)hexyl)oxy)-2-(2,6-dioxopiperidin-3-yl)isoindoline-1,3-dione] and `O=C1CCC(N2C(=O)c3cccc(NCCCC(=O)N4CCC(n5cc(-c6cnc7cccc(-c8cc(F)c(CN9CCOCC9)c(F)c8)c7n6)cn5)CC4)c3C2=O)C(=O)N1` (centres unmarked) [JA-005, 4-[[4-[4-[4-[8-[3,5-Difluoro-4-(morpholinomethyl)phenyl]quinoxalin-2-yl]pyrazol-1-yl]-1-piperidyl]-4-oxo-butyl]amino]-2-(2,6-dioxo-3-piperidyl)isoindoline-1,3-dione] are within 1.5-fold of each other in IC50: 426 nM for the first, 510 nM for the second.

`O=C(CN1CCC(n2cc(-c3cnc4cccc(-c5cc(F)c(CN6CCOCC6)c(F)c5)c4n3)cn2)CC1)NCCOCCOCCOCCNc1cccc2c1C(=O)N(C1CCC(=O)NC1=O)C2=O` (centres unmarked) [JA-141, 2-[4-[4-[8-[3,5-Difluoro-4-(morpholinomethyl)phenyl]quinoxalin-2-yl]pyrazol-1-yl]-1-piperidyl]-N-[2-[2-[2-[2-[[2-(2,6-dioxo-3-piperidyl)-1,3-dioxo-isoindolin-4-yl]amino]ethoxy]ethoxy]ethoxy]ethyl]acetamide] and `O=C(CN1CCC(n2cc(-c3cnc4cccc(-c5cc(F)c(CN6CCOCC6)c(F)c5)c4n3)cn2)CC1)NCCOCCOCCOCCOCCOCCNc1cccc2c1C(=O)N(C1CCC(=O)NC1=O)C2=O` (centres unmarked) [JA-143, 2-[4-[4-[8-[3,5-Difluoro-4-(morpholinomethyl)phenyl]quinoxalin-2-yl]pyrazol-1-yl]-1-piperidyl]-N-[2-[2-[2-[2-[2-[2-[[2-(2,6-dioxo-3-piperidyl)-1,3-dioxo-isoindolin-4-yl]amino]ethoxy]ethoxy]ethoxy]ethoxy]ethoxy]ethyl]acetamide] cannot be ordered by IC50: greater than 10000 nM for the first, greater than 10000 nM for the second.

Compared with `CS(=O)(=O)c1ccc(-c2cccc3nc(Nc4ccc(N5CCN(C(=O)CCOCCOCCOCCOCCNc6cccc7c6C(=O)N(C6CCC(=O)NC6=O)C7=O)CC5)cc4)nn23)cc1` (centres unmarked) [JA-080, 2-(2,6-Dioxo-piperidin-3-yl)-4-{2-[2-(2-{2-[3-(4-{4-[5-(4-methanesulfonyl-phenyl)-[1,2,4]triazolo[1,5-a]pyridin-2-ylamino]-phenyl}-piperazin-1-yl)-3-oxo-propoxy]-ethoxy}-ethoxy)-ethoxy]-ethylamino}-isoindole-1,3-dione], `Cc1ncsc1-c1ccc(CNC(=O)[C@@H]2C[C@@H](O)CN2C(=O)[C@@H](NC(=O)CCOCCOCCOCCOCCC(=O)N2CCN(c3ccc(Nc4nc5cccc(-c6ccc(S(C)(=O)=O)cc6)n5n4)cc3)CC2)C(C)(C)C)cc1` [JA-063, (2S,4R)-1-((S)-2-(tert-Butyl)-19-(4-(4-((5-(4-(methylsulfonyl)phenyl)-[1,2,4]triazolo[1,5-a]pyridin-2-yl)amino)phenyl)piperazin-1-yl)-4,19-dioxo-7,10,13,16-tetraoxa-3-azanonadecanoyl)-4-hydroxy-N-(4-(4-methylthiazol-5-yl)benzyl)pyrrolidine-2-carboxamide] is higher in IC50: 573 nM for the first, greater than 10000 nM for the second. The first is the more potent here.

First: O=C1CCC(N2C(=O)c3ccc(NCCOCCOCCOCCOCCOCCC(=O)N4CCC(n5cc(-c6cnc7cccc(-c8cc(F)c(CN9CCOCC9)c(F)c8)c7n6)cn5)CC4)cc3C2=O)C(=O)N1 (centres unmarked) [JA-186, 5-((18-(4-(4-(8-(3,5-Difluoro-4-(morpholinomethyl)phenyl)quinoxalin-2-yl)-1H-pyrazol-1-yl)piperidin-1-yl)-18-oxo-3,6,9,12,15-pentaoxaoctadecyl)amino)-2-(2,6-dioxopiperidin-3-yl)isoindoline-1,3-dione]
Second: O=C1CCC(N2Cc3ccc(NCCCCCC(=O)N4CCC(n5cc(-c6cnc7cccc(-c8cc(F)c(CN9CCOCC9)c(F)c8)c7n6)cn5)CC4)cc3C2=O)C(=O)N1 (centres unmarked) [JA-272, 3-(6-((6-(4-(4-(8-(3,5-Difluoro-4-(morpholinomethyl)phenyl)quinoxalin-2-yl)-1H-pyrazol-1-yl)piperidin-1-yl)-6-oxohexyl)amino)-1-oxoisoindolin-2-yl)piperidine-2,6-dione]
The IC50 of the first is higher: greater than 10000 nM for the first, 520 nM for the second. The second is the more potent here.

`Cc1ncsc1-c1ccc(CNC(=O)[C@@H]2C[C@@H](O)CN2C(=O)[C@@H](NC(=O)COCC(=O)N2CCC(n3cc(-c4cnc5cccc(-c6cc(F)c(CN7CCOCC7)c(F)c6)c5n4)cn3)CC2)C(C)(C)C)cc1` [JA-057, (2S,4R)-1-[(2S)-2-[[2-[2-[4-[4-[8-[3,5-Difluoro-4-(morpholinomethyl)phenyl]quinoxalin-2-yl]pyrazol-1-yl]-1-piperidyl]-2-oxo-ethoxy]acetyl]amino]-3,3-dimethyl-butanoyl]-4-hydroxy-N-[[4-(4-methylthiazol-5-yl)phenyl]methyl]pyrrolidine-2-carboxamide] and `Cc1ncsc1-c1ccc(CNC(=O)[C@@H]2C[C@@H](O)CN2C(=O)[C@@H](NC(=O)CCOCCNC(=O)CN2CCN(c3ccc(Nc4nc5cccc(-c6ccc(S(C)(=O)=O)cc6)n5n4)cc3)CC2)C(C)(C)C)cc1` [JA-136, (2S,4R)-1-((S)-3,3-Dimethyl-2-(3-(2-(2-(4-(4-((5-(4-(methylsulfonyl)phenyl)-[1,2,4]triazolo[1,5-a]pyridin-2-yl)amino)phenyl)piperazin-1-yl)acetamido)ethoxy)propanamido)butanoyl)-4-hydroxy-N-(4-(4-methylthiazol-5-yl)benzyl)pyrrolidine-2-carboxamide] cannot be ordered by IC50: greater than 10000 nM for the first, greater than 10000 nM for the second.
